# Source: patent US20040102365A1, “Pharmaceutical composition for prevention and remedy of osteoporosis” (priority 2003, published 2004)
# pIC50: −log10 of the molar value. Where a SMILES comes first, the peptide text is derived from it. [ ]: non-standard residue; d: D form. dLac(3-vinyl) = C=CC[C@@H](O)C(=O)O; dHica = CC(C)C[C@@H](O)C(=O)O; NMeV = CN[C@H](C(=O)O)C(C)C; NMeA = CN[C@@H](C)C(=O)O; βAla = NCCC(=O)O
# What was measured:
# osteoclasts [1] = test: Effect on the morphology and survival of osteoclasts; assay type: cell-based, mouse
# osteoclasts [2] = test: Pit formation assay (bone resorption by osteoclasts on bone fragments); assay type: cell-based, mouse; set-up: Inhibitory Activity versus pit formation: unit not given here
# Method: Since most osteoclasts growing on bone surfaces have the ability to absorb bone, leaving pits, whether the osteoclasts prepared in Example 1 have bone resorption ability or was not determined by analyzing the number and volume of pits.
# Bone fragments were prepared in a thickness of 1 mm, put in methanol, disinfected under UV light on a clean bench, and then transferred to wells of a 96-well plate, after which 100 μl α-MEM medium (10% FCS) was added. […] After incubation for 1 day, bone fragments and osteoclasts growing on them were observed micoscopically and then stored at 4° C.
# osteoclasts [3] = test: Actin ring assay; assay type: cell-based, mouse
# Method: In order to observe the formation and shape of actin rings, which function to support the cytoskeleton structure of osteoclasts, an actin ring assay was performed. After removing culture medium, osteoclasts cultured in the presence or absence of destruxin E were fixed with formalin for 10 mins, washed once with a solution containing Tween 20, and treated with 300 U rhodamine phalloidin (Sigma, USA) dissolved in methanol in a dark room.
# [4] = tested on: ^45Ca-labelled fetal radius and ulna, organ culture; test: Inhibition of ^45Ca release in mouse organ culture (PTH-induced calcium release); assay type: cell-based, ddY mice
# Method: 15 to 16 days pregnant ddY mice were injected subtaneously with a solution of ^45Ca-labelled calcium chloride to label their bone. After one day, mice were anesthetized with ether, and disinfected in 70% ethanol. Fetuses were obtained from, and transferred to a sterile dish. Under a stereo microscope, after cutting forelegs and peeling off skin thereof, attached muscle was removed from radius and ulna, and cartilage portions existing at the both ends of the two bones were then obtained. During the preparation, the bones were kept moist. Before culturing, a stainless steel membrane was put into a 24-well plate containing 0.5 mL BGJb medium (Gibco, USA), and the obtained bone was then placed onto the membrane. After incubation for 24 hours, bone was transferred to destruxin E-containing medium and further incubated for 72 hours. Herein, parathyroid hormone (PTH) inducing release of calcium was used, and the inhibitory effect of destruxin E on the calcium release by PTH was analyzed. The amounts of ^45Ca remaining in bone and released to medium were measured using 5% TCA, and bone-resorbing activity was calculated as follows.
# Bone-resorbing activity=released amount of ^45Ca to medium/(released amount of ^45Ca to medium+amount of ^45Ca remaining in bone)×100
Molecule,MIC: Minimum Inhibitory Concentration at which survival of all osteoclasts is inhibited (osteoclasts [1]) [µM],Inhibitory Activity versus pit formation (osteoclasts [2]; 0.1 μM destruxin B),Inhibitory Activity versus pit formation (osteoclasts [2]; 0.5 μM destruxin B),Inhibitory Activity versus pit formation (osteoclasts [2]; 1 μM destruxin B),Inhibitory Activity versus pit formation (osteoclasts [2]; 5 μM destruxin B),pIC50 (osteoclasts [2]; read-out: 50% inhibition (IC50) of pit formation),Inhibitory Activity versus actin ring (%) (osteoclasts [3]; 0.1 μM destruxin B),Inhibitory Activity versus actin ring (%) (osteoclasts [3]; 0.5 μM destruxin B),Inhibitory Activity versus actin ring (%) (osteoclasts [3]; 1 μM destruxin B),Inhibitory Activity versus actin ring (%) (osteoclasts [3]; 5 μM destruxin B),pIC50 (osteoclasts [3]; read-out: 50% inhibition (IC50) of actin ring formation),"Inhibitory effect on ^45Ca release, destruxin E compared with eel calcitonin [4]"
C=CC[C@H]1OC(=O)CCNC(=O)[C@H](C)N(C)C(=O)[C@H](C(C)C)N(C)C(=O)[C@H]([C@@H](C)CC)NC(=O)[C@@H]2CCCN2C1=O [Destruxin A] (cyclo([dLac(3-vinyl)]PI[NMeV][NMeA][βAla])),20,,,,,,,,,,,
CC[C@H](C)[C@@H]1NC(=O)[C@@H]2CCCN2C(=O)[C@@H](CC(C)C)OC(=O)CCNC(=O)[C@H](C)N(C)C(=O)[C@H](C(C)C)N(C)C1=O [Destruxin B] (cyclo([dHica]PI[NMeV][NMeA][βAla])),10,25,71,94,100,6.70,12,41,92,100,6.22,
eel calcitonin,,,,,,,,,,,,the inhibitory effect of destruxin E is higher than that of eel calcitonin
